Measurements reported in patent publication US6255317A, “Cholesterol biosynthesis inhibitors” (Hanwha Chemical Corporation, priority 1998, dated 2001).

Each compound was assayed against T1, sterol 14-reductase (Rattus norvegicus, UniProt A0ACM8Q6X4) (assay: Sterol 14-reductase assay with rat liver microsomes (substrate 4,4-dimethyl-5α-cholesta-7,14-dien-3β-ol, GLC)). Conditions: not given.
T1 construct: to give a microsome which was used as an enzyme source of sterol 14-reductase; from tissue
T1 sequence (A0ACM8Q6X4 1-418): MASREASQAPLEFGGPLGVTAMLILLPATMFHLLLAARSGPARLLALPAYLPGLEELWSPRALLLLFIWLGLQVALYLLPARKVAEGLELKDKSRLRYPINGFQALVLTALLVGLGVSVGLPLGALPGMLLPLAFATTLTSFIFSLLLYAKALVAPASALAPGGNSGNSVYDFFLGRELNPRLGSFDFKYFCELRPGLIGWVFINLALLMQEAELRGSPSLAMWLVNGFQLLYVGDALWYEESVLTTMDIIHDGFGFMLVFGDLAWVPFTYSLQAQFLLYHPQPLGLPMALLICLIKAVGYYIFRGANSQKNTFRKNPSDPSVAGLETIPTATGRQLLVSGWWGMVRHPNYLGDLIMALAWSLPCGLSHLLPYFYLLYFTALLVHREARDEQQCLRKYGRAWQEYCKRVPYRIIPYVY
Type: biochemical, Sprague-Dawley rats

Row | inhibition of sterol 14-reductase (in words) | Structure (SMILES)
1 | effectively inhibit | COc1cc2c(cc1OC)-c1c(C)c3ccc(OC)c(OC)c3c[n+]1CC2

Same assay, conditions: dissolved in DMSO; read-out: concentration of active ingredient in the assay at which 50% of inhibitory effect was observed (sterol 14-reductase)

Row | IC50 | Structure (SMILES)
2 | 40000 to 50000 µM | COc1cc2c(cc1OC)-c1c(C)c3ccc(OC)c(OC)c3c[n+]1CC2

Same assay, conditions: read-out: Enzyme Activity (relative in vitro activity for sterol 14-reductase, IC50 class)

Row | Structure (SMILES) | IC50
3 | CCc1c2[n+](cc3c(O)c(O)ccc13)CCc1cc(O)c(O)cc1-2 [Compound No. 7, 2,3,9,10-Tetrahydroxy-13-ethylberberine] | 10 to 100 µM
4 | CCOC(=O)c1c2[n+](cc3c(OC)c(OC)ccc13)CCc1cc(OC)c(OC)cc1-2 [Compound No. 19, 13-Ethoxycrbonylpalmatine] | ≥ 100 µM
5 | COc1ccc2c(c1OC)C(CC1CCCCC1)N1CCc3cc4c(cc3C1=C2)OCO4 (stereo not drawn) [Compound No. 31, 8-Cyclohexylmethyldihydroberberine] | ≥ 100 µM
6 | CCOc1cc2c(cc1OCC)C1=C(CC)c3ccc(OCC)c(OCC)c3C(CC(=O)C(C)C)N1CC2 (stereo not drawn) [Compound No. 45, 8-(3-methylbutan-2-one-1-yl)-13-ethyl-2,3,9,10-tetra ethoxydihydroprotoberberine] | 10 to 100 µM
7 | CCCCOc1cc2c(cc1OCCCC)-c1cc3ccc(OCCCC)c(OCCCC)c3c[n+]1CC2 [Compound No. 17, 2,3,9,10-Tetra-n-butoxyprotoberberine] | 10 to 100 µM
8 | COc1ccc2c(C3CCOC3=O)c3[n+](cc2c1OC)CCc1cc2c(cc1-3)OCO2 (stereo not drawn) [Compound No. 23, 13-α-(γ-lactonyl)berberine] | ≥ 100 µM
9 | CCC1=C2c3cc(OC)c(OC)cc3CCN2C(CC#N)c2c1ccc(OC)c2OC (stereo not drawn) [Compound No. 41, 8-Cyanomethyl-13-ethyldihydropalmatine] | ≥ 100 µM
10 | CCCCCCCCC1c2c(ccc(OC)c2OC)C=C2c3cc4c(cc3CCN21)OCO4 (stereo not drawn) [Compound No. 35] | ≥ 100 µM
11 | CCC1c2c(ccc(OC)c2OC)C=C2c3cc(OC)c(OC)cc3CCN21 (stereo not drawn) [Compound No. 34, 8-Ethyldihydropalmatine] | ≥ 100 µM
12 | CCC1c2c(ccc(OC)c2OC)C=C2c3cc4c(cc3CCN21)OCO4 (stereo not drawn) [Compound No. 28, 8-Ethyldihydroberberine] | ≥ 100 µM
13 | CCC1=C2c3cc(OC)c(OC)cc3CCN2C(CC(=O)CC(C)C)c2c1ccc(OC)c2OC (stereo not drawn) [Compound No. 40, 8-(4-methylpentan-2-one-1-yl)-13-ethyldihydropalmatine] | 10 to 100 µM
14 | CCC1=C2c3cc(OC)c(OC)cc3CCN2C(CC)c2c1ccc(OC)c2OC (stereo not drawn) [Compound No. 49, 8-Ethyl-13-ethyldihydropalmatine] | ≥ 100 µM
15 | COc1cc2c(cc1OC)-c1c(CCCI)c3ccc(OC)c(OC)c3c[n+]1CC2 [Compound No. 16, 13-Iodopropylpalmatine] | 10 to 100 µM
16 | C=CCc1c2[n+](cc3c(OC)c(OC)ccc13)CCc1cc3c(cc1-2)OCO3 [Compound No. 9, 13-Allylberberine] | ≥ 100 µM
17 | COc1ccc2c(C)c3[n+](cc2c1OC)CCc1cc2c(cc1-3)OCO2 [Compound No. 1, 13-Methylberberine] | 10 to 100 µM
18 | CCC1=C2c3cc(OC)c(OC)cc3CCN2C(C2CCCCC2=O)c2c1ccc(OC)c2OC (stereo not drawn) [Compound No. 43, 8-(cyclohexanon-2-yl)-13-ethyldihydropalmatine] | ≥ 100 µM
19 | CCOc1cc2c(cc1OCC)C1=C(CC)c3ccc(OCC)c(OCC)c3C(CC(C)=O)N1CC2 (stereo not drawn) [Compound No. 44, 8-Acetonyl-13-ethyl-2,3,9,10-tetraethoxy-dihydroprotoberberine] | 10 to 100 µM
20 | COc1cc2c(cc1OC)-c1c(CC3CCCCC3)c3ccc(OC)c(OC)c3c[n+]1CC2 [Compound No. 15, 13-(cyclohexylmethyl)palmatine] | ≥ 100 µM
21 | CCCCCCCCc1c2[n+](cc3c(OC)c(OC)ccc13)CCc1cc(OC)c(OC)cc1-2 [Compound No. 14, 13-n-octylpalmatine] | ≥ 100 µM

The next lines start with the values.

Row | IC50 | Structure (SMILES)
22 | ≥ 100 µM | COc1cc2c(cc1OC)-c1c(CCC3OCCCO3)c3ccc(OC)c(OC)c3c[n+]1CC2 [Compound No. 18, 13-(1,3-dioxane-2-yl)ethylpalmatine]
23 | 10 to 100 µM | COc1ccc2c(C)c3[n+](cc2c1OC)CCc1cc(O)c(O)cc1-3 [Compound No. 2, 2,3-Dihydroxy-13-methylberberine]
24 | ≥ 100 µM | COc1ccc2c(c1OC)C(C1CC1)N1CCc3cc4c(cc3C1=C2)OCO4 (stereo not drawn) [Compound No. 36]
25 | 10 to 100 µM | CCc1c2[n+](cc3c(NCCO)c(OC)ccc13)CCc1cc(OC)c(OC)cc1-2 [Compound No. 25, 9-Hydroxyethylamino-13-ethylberberine]
26 | ≥ 100 µM | COc1cc2c(cc1OC)-c1c(CC3CC3)c3ccc(OC)c(OC)c3c[n+]1CC2 [Compound No. 13, 13-(cyclopropylmethyl)palmatine]
27 | ≥ 100 µM | CCCCC1c2c(ccc(OC)c2OC)C=C2c3cc4c(cc3CCN21)OCO4 (stereo not drawn) [Compound No. 30, 8-n-butyldihydroberberine]
28 | ≥ 100 µM | COc1ccc2c(c1OC)C(C)N1CCc3cc4c(cc3C1=C2)OCO4 (stereo not drawn) [Compound No. 27, 8-Methyldihydroberberine]
29 | ≥ 100 µM | COc1ccc2c(c1OC)C(CC(C)=O)N1CCc3cc4c(cc3C1=C2)OCO4 (stereo not drawn) [Compound No. 26, 8-Acetonyldihydroberberine]
30 | ≥ 100 µM | C=CCc1c2[n+](cc3c(O)c(O)ccc13)CCc1cc(O)c(O)cc1-2 [Compound No. 10, 2,3,9,10-Tetrahydroxy-13-allylberberine]
31 | ≥ 100 µM | COc1cc2c(cc1OC)-c1c(CC(=O)O)c3ccc(OC)c(OC)c3c[n+]1CC2 [Compound No. 21, 13-Carboxymethylpalmatine]
32 | ≥ 100 µM | COc1cc2c(cc1OC)C1=Cc3ccc(OC)c(OC)c3C(C)N1CC2 (stereo not drawn) [Compound No. 33, 8-Methyldihydropalmatine]
33 | ≥ 100 µM | CCC1=C2c3cc(OC)c(OC)cc3CCN2C(C)c2c1ccc(OC)c2OC (stereo not drawn) [Compound No. 48, 8-Methyl-13-ethyldihydropalmatine]
34 | ≥ 100 µM | CCOC(=O)Cc1c2[n+](cc3c(OC)c(OC)ccc13)CCc1cc(OC)c(OC)cc1-2 [Compound No. 20, 13-Ethoxycarbonylmethylpalmatine]
35 | ≥ 100 µM | CCC1=C2c3cc(OC)c(OC)cc3CCN2C(C2CCCC2=O)c2c1ccc(OC)c2OC (stereo not drawn) [Compound No. 42, 8-(cyclopentanon-2-yl)-13-ethyldihydropalmatine]
36 | 10 to 100 µM | CCCCc1c2[n+](cc3c(OC)c(OC)ccc13)CCc1cc(OC)c(OC)cc1-2 [Compound No. 12, 13-n-butylpalmatine]
37 | ≥ 100 µM | CCCC1c2c(ccc(OC)c2OC)C=C2c3cc4c(cc3CCN21)OCO4 (stereo not drawn) [Compound No. 29, 8-n-propyldiydroberberine]
38 | ≥ 100 µM | COC(=O)C(C)c1c2[n+](cc3c(OC)c(OC)ccc13)CCc1cc3c(cc1-2)OCO3 (stereo not drawn) [Compound No. 22, 13-(1-methoxycarbonylethyl)berberine]
39 | ≥ 100 µM | CCOC(=O)Cc1c2[n+](cc3c(OC)c(OC)ccc13)CCc1cc3c(cc1-2)OCO3 [Compound No. 24, 13-Ethoxycarbonylmethylberberine]
40 | ≥ 100 µM | Oc1cc2c(cc1O)-c1cc3ccc(O)c(O)c3c[n+]1CC2 [Compound No. 3, 2,3,9,10-Tetrahydroxyberberine]
41 | ≥ 100 µM | COc1ccc2c(c1OC)C(C(C)C)N1CCc3cc4c(cc3C1=C2)OCO4 (stereo not drawn) [Compound No. 32, 8-i-propyldihydroberberine]
42 | 10 to 100 µM | CCCc1c2[n+](cc3c(OC)c(OC)ccc13)CCc1cc(OC)c(OC)cc1-2 [Compound No. 11, 13-n-propylpalmatine]
43 | ≥ 100 µM | CCCCC1c2c(ccc(OC)c2OC)C(CC)=C2c3cc(OC)c(OC)cc3CCN21 (stereo not drawn) [Compound No. 50, 8-n-butyl-13-ethyldihydropalmatine]
44 | 10 to 100 µM | Cc1c2[n+](cc3c(O)c(O)ccc13)CCc1cc(O)c(O)cc1-2 [Compound No. 4, 2,3,9,10-Tetrahydroxy-13-methylberberine]
45 | 10 to 100 µM | CCC1=C2c3cc(OC)c(OC)cc3CCN2C(CC(=O)C(C)C)c2c1ccc(OC)c2OC (stereo not drawn) [Compound No. 39, 8-(3-methylbutan-2-one-1-yl)-13-ethyldihydro palmatine]

What follows are compounds tested on Syrian Golden Hamster (assay: In vivo effect on plasma lipids and glucose in Syrian Golden Hamster). Conditions: against normal diet control; 6.0 mg/kg/day.
Method: In order to investigate the effect of the compound of formula (1) of the invention, the compound was orally administered into male Syrian Golden Hamsters having weights of 90~110 g and then blood was taken from each animal. Plasma lipids, i.e., total cholesterol, LDL-cholesterol, HDL-cholesterol and triglycerides were analyzed using an automatic analyzer (Automatic analyzer model Hitachi 7150).
Male Syrian Golden Hamsters weighing 90~110 g distributed from Samyuk Animal Laboratory, Seoul, Korea were bred under the following conditions: They were maintained under reverse light cycle (light cycle: from 6 P.M to 6 A.M; dark cycle: from 6 A.M. to 6 P.M.). The food and water were supplied at 10 A.M. The commercially available standard rodent chows were used. The hamsters were divided into 6 or 7 animals per group. The animals were fasted for 12 hours before administrating the drug. Then, dehydrocoridaline derivatives dissolved in a 0.25% methyl cellulose solution was administered orally for 14 days at the indicated time per a day. After fasting animals for 24 hours from the last administration, blood was extracted using a cardiac puncture and plasma was then isolated. Plasma lipids, i.e., total cholesterol, LDL-cholesterol, HDL-cholesterol and triglyceride values were analyzed using Automatic Analyzer (Hitachi 7150).

Row | Structure (SMILES) | Glucose, percent change in parentheses | HDL cholesterol, percent change in parentheses | LDL cholesterol, percent change in parentheses | Total cholesterol, percent change in parentheses
46 | CC[C@H](C)C(=O)O[C@H]1C[C@@H](C)C=C2C=C[C@H](C)[C@H](CC[C@@H]3C[C@@H](O)CC(=O)O3)[C@H]21 [lovastatin, reference compound] | +1.0% | -2.6% | -29.1% | -22.7%

Same assay, conditions: normal diet + 6.0 mg/kg/day, oral, 14 days, hamster

Row | Structure (SMILES) | Glucose
47 | CC[C@H](C)C(=O)O[C@H]1C[C@@H](C)C=C2C=C[C@H](C)[C@H](CC[C@@H]3C[C@@H](O)CC(=O)O3)[C@H]21 [lovastatin, reference compound] | 184.6 ± 23.2 mg/dL

Same assay, conditions: normal diet + 6.0 mg/kg/day, oral, 14 days, hamster plasma

Row | Structure (SMILES) | HDL cholesterol | LDL cholesterol | Total cholesterol | Trigly-ceride
48 | CC[C@H](C)C(=O)O[C@H]1C[C@@H](C)C=C2C=C[C@H](C)[C@H](CC[C@@H]3C[C@@H](O)CC(=O)O3)[C@H]21 [lovastatin, reference compound] | 51.4 ± 2.6 mg/dL | 29.9 ± 1.9 mg/dL | 97.4 ± 3.4 mg/dL | 182.6 ± 17.0 mg/dL
